{
  "source": "patent US5162573A",
  "about": "“Valproic and (E)-2-valproenoic acid derivatives, and pharmaceutical compositions therefrom” (Chiesi Farmaceutici S.p.A., priority 1986, dated 1992)",
  "origin": "cited, not measured here",
  "key": {"[1]": {"assay": "not given", "remark": "listed apart in the source"}, "[2]": {"settings": "oral administration of equimolecular doses, in comparison with valproic acid"}, "[3]": {"settings": "in comparison with valproic acid"}},
  "data": [
    {"smiles": "CCCC(CCC)C(=O)O", "note": "[valproic acid, 2-propyl-2-pentanoic acid]", "values": [
      {"measurement": "teratogenic effects", "setting": "in vivo", "result": "teratogenic effects"},
      {"measurement": "half life in man", "setting": "[1]", "result": "9 to 10", "unit": "h"}
    ]},
    {"smiles": "CC/C=C(\\CCC)C(=O)O", "note": "[valproenoic acid, (E)-2-propyl-2-pentenoic acid]", "values": [
      {"measurement": "toxic effects", "setting": "in comparison with valproic acid", "result": "remarkably reduced toxic effects"},
      {"measurement": "hepatic tolerability / hepatic reactions", "setting": "in vivo", "result": "much better tolerated at hepatic level"},
      {"measurement": "teratogenic effects", "setting": "in vivo", "result": "totally devoid of teratogenic effects"},
      {"measurement": "hepatic concentration", "setting": "[2]", "result": "remarkably reduced hepatic concentration in comparison with valproic acid"},
      {"measurement": "anticonvulsivant activity, potency and duration of action", "setting": "[3]", "result": "a wide spectrum anticonvulsivant activity, a potency and a duration of action comparable to those of valproic acid"},
      {"measurement": "half life in man", "setting": "[1]", "result": 12.5, "unit": "h"}
    ]}
  ]
}
